In patent US6828343B2, “Bicyclic pyrrolyl amides as glycogen phosphorylase inhibitors” (Pfizer, Inc., priority 1999, dated 2004):

O=C(N[C@@H](Cc1ccccc1)C(=O)N1CCOCC1)c1cc2cc(Cl)sc2[nH]1 [Example 19, 2-chloro-6H-thieno[2,3-b]pyrrole-5-carboxylic acid [(1S)-benzyl-2-morpholin-4-yl-2-oxo-ethyl]-amide]
melting point: 108 to 110 °C
